The structures appear in SMILES notation.

For the assay, the target named is T1, CD28-CD80 interactions (Homo sapiens, UniProt P33681).
T1 sequence (P33681 35-242 limits assumed): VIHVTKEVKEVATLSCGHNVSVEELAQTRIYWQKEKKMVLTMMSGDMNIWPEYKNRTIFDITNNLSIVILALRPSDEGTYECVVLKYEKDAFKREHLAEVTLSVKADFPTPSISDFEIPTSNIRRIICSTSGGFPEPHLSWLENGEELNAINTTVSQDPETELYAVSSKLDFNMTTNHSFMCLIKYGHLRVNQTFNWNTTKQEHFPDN
Briefly: Time resolved fluorescence competition assay: CD28-CD80 interactions. It is filed as binding. Conditions: inhibition of CD28-mFc (5 nM) / CD80FabC215 (10 nM) interaction; representative results. Here is the method: Time resolved fluorescence competition assay protocol: CD28-CD80 interactions.
50 mM Tris-HCl, 150 mM NaCl, 0.05% Tween 20, pH 7.8, containing 0.1% BSA (w/v), added prior to use.
The substances to be tested for inhibitory effects were serially diluted from stock concentrations of 20 mM (DMSO) in assay buffer to preparation concentrations of 200, 100, 50 and 25 μM. The final concentration in the wells was 100, 50, 25 and 12.5 μM, respectively. The maximum final DMSO concentration tolerated in the assay was 0.5%. Where appropriate, the dilution series was adjusted and extended to measure the IC50.
CTLA4-hIg(Fc) was diluted to working concentrations of 20 nM and 2 nM, resulting in final concentrations of 10 nM and 1 nM in the well. At these concentrations (10 nM and 1 nM) approximately 90% and 30% inhibition levels were observed.
Preparation of Reagent Mixture
To a tube containing 1.1 ml assay buffer, the following reagents were added:
900 μl of the above reagent mixture was transferred to a new tube. CD80FabC215 was added at a preparation concentration of 20 nM, (i.e. 4.3 μl from 0.4 mg/ml stock). The final concentration in the well was 10 nM.
To the remaining 200 μl reagent mixture C215Fab was added as control for non-specific binding (NSB). 0.5 μl from a 0.36 mg/ml stock gave a preparation concentration of 20 nM and a final concentration in the well of 10 nM.
To a black, half area, 96-well microtiter plate, the C215Fab containing reagent mixture was transferred to column 12, row E-H (4 wells), 10 μl/well with a single channel electronic pipette. 10 μl/well of the CD80FabC215 containing reagent mixture was transferred with a single channel electronic pipette to all other wells on the plate
B0: Assay buffer, 10 μl/well was pipetted to the CD80FabC215 containing wells in column 12, row A-D (4 wells).
NSB: Assay buffer, 10 μl/well was pipetted to the C215Fab containing wells in column 12, row E-H (4 wells).
CTLA4-hIg(Fc), 10 μl/well of 20 and 2 nM (final conc 10 and 1 nM) was pipetted in duplicate into well 11 E-F and 11 G-H.
Sample dilution series: 10 μl/well in duplicate to the remaining wells.
The plate was covered with a plastic lid and incubated in the dark: Initially for 1 h on a shaker platform at room temperature (RTS), stationary at +4° C. overnight, and finally 1 h RTS before reading.
The plate was measured on a Victor 1420 Multilabel Counter using the LANCE protocol (#2) measuring emission at dual wavelengths, from both APC (665 nm) and Europium (615 nm). First measurement: Excitation 340 nm, emission 665 nm, delay 50 μs, window time 200 μs. Second measurement: Excitation 340 nm, emission 615 nm, delay 50 μs, window time 200 μs.
The fluorescence signal ratio 1000* 665 nm/615 nm, from which the percentage inhibition was calculated, was determined. A logit b plot (Logit b=LN (% Bound/(100% −% Bound, plotted against Log conc) was performed from which IC50 was measured.
For the molecule `O=C(O)c1ccc(-n2nc3c4ccccc4[nH]cc-3c2=O)cc1Cl` [2-Chloro-4-(3-oxo-3,5-dihydro-pyrazolo[4,3-c]quinolin-2-yl)-benzoic Acid], the IC50 was found to be 270 nM. Under `O=C(O)CNC(=O)c1ccc(-n2nc3c4ccccc4[nH]cc-3c2=O)cc1` [2-[4-(3-Oxo-3,5-dihydro-pyrazolo[4,3-c]quinolin-2-yl)-benzoylamino]-2-acetic Acid] stands 3900 nM; under `O=C(O)c1cccc(-n2nc3c4ccccc4[nH]cc-3c2=O)c1` [3-(3-Oxo-3,5-dihydro-pyrazolo[4,3-c]quinolin-2-yl)-benzoic Acid], 880 nM. Next, `O=C(O)c1ccc(-n2nc3c4ccccc4scc-3c2=O)cc1` [4-(3-Oxo-3H-thiochromeno[4,3-c]pyrazol-2-yl)benzoic Acid]: 13500 nM; `O=C(O)c1ccc(-n2nc3c4ccccc4[nH]cc-3c2=O)cc1` [4-(3-oxo-3,5-dihydro-pyrazolo[4,3-c]quinolin-2-yl)-benzoic Acid]: 480 nM; `O=C(O)CCC(=O)Nc1ccc(-n2nc3c4ccccc4[nH]cc-3c2=O)cc1` [N-[4-(3-Oxo-3,5-dihydro-pyrazolo[4,3-c]quinolin-2-yl)-phenyl]-succinamic Acid]: 600 nM. `O=C(O)CCc1ccc(-n2nc3c4ccccc4[nH]cc-3c2=O)cc1` [[4-(3-Oxo-3,5-dihydro-pyrazolo[4,3-c]quinolin-2-yl)-phenyl]-propionic Acid] gave an IC50 of 1600 nM.

Values taken from US6642249B2, “Immunomodulating compounds” (Active Biotech AB, priority 2001, dated 2003).
